Experiments:
[1] = test system: monosomy 3 and disomy 3 cells; experiment: Percent cell survival with SDHA and/or MIF inhibitors; type: cell-based; details: simultaneous 20 nM SDHA siRNA and 10 or 25 μM ISO-1; both cell lines (monosomy 3, disomy 3); FIG. 7B
Text: FIGS. 7A-7B: (FIG. 7A) Survival rate of uveal melanoma predicted using TCGA data. SDHA and MIF expression both above median is associated with lowest survival rate. SDHA and MIF both below median is associated with highest survival rate. SDHA below median and MIF above median expression is associated with the second lowest survival rate (p<0.001). (FIG. 7B) In vitro validation of association of SDHA and MIF expression with uveal melanoma cell survival.
Accordingly, the survival rate of uveal melanoma was predicted using TCGA data of SDHA and/or MIF expression. SDHA and MIF expression both above median was associated with lowest survival rate (FIG. 7A). On the other hand, SDHA and MIF both below median was associated with highest survival rate. Thus, both SDHA and MIF expression correlate with survival rate of uveal melanoma patients and may be used for prognosis. The association of SDHA and MID with uveal melanoma survival rate was validated by measuring percent cell survival in monosomy 3 and disomy 3 cells treated with SHDA and/or MIF inhibitors. SDHA was inhibited by 20 nM siRNA and MIF was inhibited by 10 or 25 μM ISO-1.

[2] = test system: monosomy 3 uveal melanoma cell lines; experiment: Cell survival analysis with OXPHOS inhibitor IACS-10759; type: cell-based
Protocol: Cell survival analysis with monosomy and disomy 3 uveal melanoma cells in presence and absence of oxidative phosphorylation (OXPHOS) inhibitor, IACS-10759, was performed. Cells were cultured under ambient oxygen or 1% oxygen. Mitotracker Red dye staining was used to assay the extent of active mitochondria in monosomy 3 and disomy 3 cells. The percent cell survival of uveal melanoma cells treated with increasing concentrations of OXPHOS inhibitor, IACS-10759, was determined.

| Compound | percent cell survival [1] | percent cell survival, resistance to inhibitor ([2]; monosomy 3 lines under hypoxic conditions (1% oxygen) or in galactose media) | percent cell survival, resistance to inhibitor ([2]; three monosomy 3 UM cell lines compared to three lines with normal chromosome 3 copy number, increasing concentrations) |
| --- | --- | --- | --- |
| COC(=O)CC1CC(c2ccc(O)cc2)=NO1 (stereo not drawn) [ISO-1] | highest decrease in percent cell survival | – | – |
| Cc1nc(-c2nc(-c3ccc(OC(F)(F)F)cc3)no2)nn1Cc1cccc(N2CCC(S(C)(=O)=O)CC2)c1 [IACS-10759] | – | resistance diminishes | more resistant to IACS-10759 |

Source: patent publication US11767564B2, “Use of SDHA as a prognostic marker and therapeutic target in uveal melanoma” (Board of Regents, The University of Texas System, priority 2017, dated 2023)
